Results reported in patent US8518958B2, “Pyrido [2,3-D] pyrimidines and their use as kinase inhibitors” (Forma Therapeutics, Inc., priority 2006, dated 2013).

How the values were obtained:
[1] = target: B-Raf delta1-415 (Homo sapiens, UniProt P15056); assay: B-Raf kinase inhibition (MAPH filter plate, 33P-ATP, MEK1 substrate); conditions: read-out: Biochemical IC50 B-Raf
Description: We characterized the in vitro inhibitory activity against protein kinases of compounds of the present invention by determining their IC50 values (see Table 2).
Kinase: B-Raf delta1-415 (e.g., Upstate Cat. No. 14-530)
Reaction Temperature: room temperature
Assay Plate: 96 well U bottom plate (Greiner, 650161)
MultiScreen-PH Plate: 96 well MAPH Filter Plates (Millipore, MAPHNOB50)
Filter Washing Solution: 0.75% H3PO4
Szintilation Liquid: Supermix Liquid Szintillator (PerkinElmer, 1200-439)
Negative Control (C−): 100 mM EDTA, no Inhibitor
Positive Control (C+): no Inhibitor
Reaction Buffer: 20 mM Mops, pH 7.0 • 10 mM MgCl2 • 0.4 mM MnCl2 • 100 mM NaCl • 1 mM DTT • 0.01% NP40
Final Assay Concentrations:
Kinase: Kinase conc. yielding 50% substrate turnover as determined in titration experiment.
Adenosine 5′-[γ-^33P]triphosphate: 12.5 μCi/ml (Amersham Biosciences, BF1000)
Pipetting Sequence: • 1) Add 10 μl 4-fold concentrated substrate in 3-fold concentrated reaction buffer to each well of assay plate • 2) Add 10 μl 4-fold concentrated inhibitor in 4% DMSO in H2O to each well except to C− and C+ wells (starting point: final inhibitor concentration 10 μM; IC50 determination based on dilution series) • 3) Add 10 μl 4% DMSO in H2O to C− and C+ wells • 4) Add 10 μl 500 mM EDTA in H2O to C− wells • 5) Add 10 μl 50 μCi/ml adenosine 5′-[γ-^33P]triphosphate in H2O+4-fold cold ATP to each well • 6) Add 10 μl 4-fold concentrated kinase in reaction buffer to each well • 7) Incubate 1 hr at room temperature • 8) Add 10 μl 50 mM EDTA in H2O to each well except to C− wells • 9) Prepare MAPH plates by adding 200 μl 0.75% H3PO4 to each well • 10) Exhaust 0.75% H3PO4 using Millipore vacuum station • 11) Add 60 μl 0.75% H3PO4 to each well of MAPH filter plate • 12) Transfer 30 μl sample per well from assay plate to corresponding well of MAPH filter plate • 13) Incubate 30 min at room temperature • 14) Wash each well of MAPH filter plates 3× with 200 μl 0.75% H3PO4 using Millipore vacuum station • 15) Add 20 μl scintillation liquid to each well of MAPH filter plate • 16) Seal MAPH filter plate • 17) Store MAPH filter plate 30 min in darkness • 18) Quantify radioactivity using scintillation counter (MicroBeta, Perkin-Elmer)

[2] = tested on: HT-29 tumor cells; assay: Anti-proliferative activity, SRB assay; format: cell-based, human; conditions: Homo sapiens, HT-29, 72 h, 72 hours exposure, read-out: CELLULAR IC50 HT-29
Procedure: We observed the surprising finding that compounds of the invention were useful in inhibiting proliferation of HT-29 tumor cells (see Table 3).
3,000-15,000 cells/well were exposed to the test compounds at various concentrations appropriate to determine an IC50, for 72 hours, and cell proliferation was measured using the SRB assay according to Shekan et al (J Natl Cancer Inst (1990) 82, 1107-112) in order to estimate the IC50 values shown in Table 3. Briefly, cells were plated in 96 well dishes 24 hours prior to compound addition. The assay was terminated with the addition of cold TCA to a final concentration of 10% and the plates were incubated for one hour at 4° C. The plates were then washed 5 times with water and 100 μl of a Sulforhodamine B solution (4%) was added to each well. The plate was then incubated for 10 minutes at room temperature before removal of unbound dye by washing with 1% acetic acid. The bound dye was solubilized with 10 mM Trizma base and the absorbance read at OD570. Inhibitory activity of the compounds was calculated as % inhibition of cell proliferation compared to cells treated with the solvent (DMSO).

Sequence of B-Raf delta1-415 (P15056 416-766): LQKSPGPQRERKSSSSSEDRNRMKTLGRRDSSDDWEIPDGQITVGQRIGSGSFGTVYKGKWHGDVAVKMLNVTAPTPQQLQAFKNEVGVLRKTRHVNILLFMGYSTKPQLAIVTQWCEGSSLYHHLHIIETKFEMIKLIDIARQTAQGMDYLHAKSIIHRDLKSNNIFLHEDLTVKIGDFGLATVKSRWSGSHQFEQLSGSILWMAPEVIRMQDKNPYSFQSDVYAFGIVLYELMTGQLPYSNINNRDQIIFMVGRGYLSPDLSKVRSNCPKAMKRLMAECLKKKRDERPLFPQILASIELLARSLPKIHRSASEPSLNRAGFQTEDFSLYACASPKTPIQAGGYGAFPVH

| IC50 [1] | IC50 [2] | SMILES |
| --- | --- | --- |
| < 0.1 µM | < 1 µM | O=c1c(-c2c(F)cccc2Cl)cc2cnc(Nc3ccc(N4CCOCC4)cc3)nc2n1OC[C@H](O)CO [Compound 152] |
| < 0.5 µM | < 1 µM | COn1c(=O)c(-c2c(Cl)cccc2Cl)cc2cnc(Nc3ccc(OCC(O)CO)cc3)nc21 (stereo not drawn) [Compound 93, 6-(2,6-Dichlorophenyl)-2-(4-(2,3-dihydroxypropyl)oxyphenyl) amino-8-methoxy-pyrido[2,3-d]pyrimidin-7-one] |
| < 0.5 µM | < 1 µM | COCCOn1c(=O)c(-c2c(Cl)cccc2Cl)cc2cnc(Nc3ccc(N4CCNCC4)cc3)nc21 [Compound 195, 6-(2,6-Dichlorophenyl)-8-(2-methoxyethyl)oxy-2-(4-piperazinophenyl)-amino-pyrido[2,3-d]pyrimidin-7-one] |
| < 0.5 µM | < 1 µM | COn1c(=O)c(-c2c(C)cccc2C)cc2cnc(Nc3cc(C(=O)NCCO)n(C)c3)nc21 [Compound 83, 6-(2,6-Dimethylphenyl)-2-(5-(2-hydroxyethyl)aminocarbonyl-1-methyl-pyrrol-3-yl)-amino-8-methoxy-pyrido[2,3-d]pyrimidin-7-one] |
| > 1 µM | < 1 µM | COC(=O)c1ccc(Nc2ncc3cc(-c4c(Cl)cccc4Cl)c(=O)n(OC)c3n2)cc1 [Compound 162, 6-(2,6-Dichlorophenyl)-2-(4-methoxycarbonylphenyl)-amino-8-methoxy-pyrido[2,3-d]pyrimidin-7-one] |
| < 0.5 µM | < 1 µM | Cn1cc(Nc2ncc3cc(-c4c(Cl)cccc4Cl)c(=O)n(OC[C@H](O)CO)c3n2)cc1C(=O)NCCN1CCCC1 [Compound 108, 6-(2,6-Dichlorophenyl)-8-(2-(R)-2,3-dihydroxypropyl)oxy-2-(5-(2-pyrrolidinoethyl)aminocarbonyl-1-methyl-pyrrol-3-yl)-amino-pyrido[2,3-d]pyrimidin-7-one] |
| < 0.5 µM | < 1 µM | COn1c(=O)c(-c2c(Cl)cccc2Cl)cc2cnc(Nc3ccc(N4CCN(S(C)(=O)=O)CC4)cc3)nc21 [Compound 200, 6-(2,6-Dichlorophenyl)-8-methoxy-2-(4-(4-methylsulfonyl)piperazino-phenyl)-amino-pyrido[2,3-d]pyrimidin-7-one] |
| < 0.1 µM | < 1 µM | COn1c(=O)c(-c2c(Cl)cccc2Cl)cc2cnc(Nc3ccc(N4CCCN(C)CC4)cc3)nc21 [Compound 221, 6-(2,6-Dichlorophenyl)-8-methoxy-2-(4-(4-methyl-1,4-diazacycloheptyl)phenyl-)-amino-pyrido[2,3-d]pyrimidin-7-one] |
| < 0.5 µM | < 1 µM | CCN(CC)CCNC(=O)c1cc(Nc2ncc3cc(-c4c(C)cccc4C)c(=O)n(OC)c3n2)cn1C [Compound 84, 6-(2,6-Dimethylphenyl)-2-(5-(2-diethylaminoethyl)aminocarbonyl-1-methyl-pyrrol-3-yl)-amino-8-methoxy-pyrido[2,3-d]pyrimidin-7-one] |
| < 0.1 µM | < 1 µM | COn1c(=O)c(-c2c(Cl)cccc2Cl)cc2cnc(Nc3ccc(OCCN4CC[C@H](O)C4)cc3)nc21 [Compound 92, 6-(2,6-Dichlorophenyl)-2-(4-(2-(3-(S)-hydroxypyrrolidino)ethyl)oxyphenyl)amino-8-methoxy-pyrido[2,3-d]pyrimidin-7-one] |

Further lines, the compound ahead of its results:

| SMILES | IC50 [1] | IC50 [2] |
| --- | --- | --- |
| COn1c(=O)c(-c2c(Cl)cccc2Cl)cc2cnc(Nc3ccc(CNS(C)(=O)=O)cc3)nc21 [Compound 120, 6-(2,6-Dichlorophenyl)-8-methoxy-2-(4-methylsulfonylaminomethyl-phenyl)-amino-pyrido[2,3-d]pyrimidin-7-one] | < 0.1 µM | < 1 µM |
| COCCOn1c(=O)c(-c2c(F)cccc2Cl)cc2cnc(Nc3ccc(N4CCNCC4)cc3)nc21 [Compound 216, 6-(2-Chloro-6-fluorophenyl)-8-(2-methoxyethyl)oxy-2-(4-piperazinophenyl)-amino-pyrido[2,3-d]pyrimidin-7-one] | < 0.5 µM | < 1 µM |
| CCOn1c(=O)c(-c2c(F)cccc2Cl)cc2cnc(Nc3ccc(N4CCOCC4)cc3)nc21 [Compound 128] | < 0.1 µM | < 1 µM |
| O=c1c(-c2c(Cl)cccc2Cl)cc2cnc(Nc3ccccc3)nc2n1OCC1CCOCC1 [Compound 186, 6-(2,6-Dichlorophenyl)-2-phenylamino-8-(tetrahydropyran-4-ylmethyl)oxy-pyrido[2,3-d]pyrimidin-7-one] | < 0.5 µM | < 1 µM |
| O=c1c(-c2c(F)cccc2Cl)cc2cnc(Nc3ccc(N4CCOCC4)cc3)nc2n1OCc1cccnc1 [Compound 132] | < 0.1 µM | < 1 µM |
| COn1c(=O)c(-c2c(Cl)cccc2Cl)cc2cnc(Nc3cccc(S(C)(=O)=O)c3)nc21 [Compound 157, 6-(2,6-Dichlorophenyl)-8-methoxy-2-(3-methylsulfonylphenyl)-amino-pyrido[2,3-d]pyrimidin-7-one] | < 0.1 µM | < 1 µM |
| CNS(=O)(=O)Cc1ccc(Nc2ncc3cc(-c4c(Cl)cccc4Cl)c(=O)n(OC)c3n2)cc1 [Compound 125, 6-(2,6-dichlorophenyl)-8-methoxy-2-(4-(methylaminosulfonylmethyl)phenyl)-amino-pyrido[2,3-d]pyrimidin-7-one] | < 0.1 µM | < 1 µM |
| Nc1ncc2cc(-c3c(Cl)cccc3Cl)c(=O)n(OCc3cccnc3)c2n1 [Compound 232, 2-Amino-6-(2,6-dichlorophenyl)-8-(pyrid-3-yl)methoxy-pyrido[2,3-d]pyrimidin-7-one] | < 1 µM | < 10 µM |
| CCNS(=O)(=O)c1cccc(Nc2ncc3cc(-c4c(Cl)cccc4Cl)c(=O)n(OC)c3n2)c1 [Compound 122, 6-(2,6-Dichlorophenyl)-2-(3-ethylaminosulfonylphenyl)-amino-8-methoxy-pyrido[2,3-d]pyrimidin-7-one] | < 0.5 µM | < 1 µM |
| COn1c(=O)c(-c2c(Cl)cccc2Cl)cc2cnc(Nc3ccc(Cn4cccn4)cc3)nc21 [Compound 124, 6-(2,6-dichlorophenyl)-8-methoxy-2-(4-(pyrazol-1-ylmethyl)phenyl)-amino-pyrido[2,3-d]pyrimidin-7-one] | < 0.5 µM | < 1 µM |
| COn1c(=O)c(-c2c(F)cccc2Cl)cc2cnc(Nc3ccc(C4CCNCC4)cc3)nc21 [Compound 222, 6-(2-Chloro-6-fluorophenyl)-8-methoxy-2-(4-(piperidin-4-yl)phenyl)-amino-pyrido[2,3-d]pyrimidin-7-one] | < 0.1 µM | < 1 µM |
| COn1c(=O)c(-c2c(Cl)cccc2Cl)cc2cnc(NCc3cccnc3)nc21 [Compound 146, 6-(2,6-Dichlorophenyl)-8-methoxy-2-pyrid-3-ylmethylamino-pyrido[2,3-d]pyrimidin-7-one] | < 0.5 µM | < 10 µM |
| COn1c(=O)c(-c2c(Cl)cccc2Cl)cc2cnc(Nc3ccc(Br)cc3)nc21 [Compound 191, 2-(4-Bromophenyl)amino-6-(2,6-dichlorophenyl)-8-methoxy-pyrido[2,3-d]pyrimidin-7-one] | > 1 µM | < 10 µM |
| CN1CC[C@H](COn2c(=O)c(-c3c(F)cccc3Cl)cc3cnc(Nc4ccc(N5CCOCC5)cc4)nc32)C1 [Compound 212, 6-(2-Chloro-6-fluorophenyl)-8-(3-(S)-1-methyl-pyrrolidin-3-yl)methoxy-2-(4-morpholinophenyl)-amino-pyrido[2,3-d]pyrimidin-7-one] | < 0.1 µM | < 1 µM |
